Experimental data reported in PMC8637440, “Structural Modifications Yield Novel Insights Into the Intriguing Pharmacodynamic Potential of Anti-inflammatory Nitro-Fatty Acids” (Frontiers in Pharmacology, 2021).

Target: T1, sEH (Homo sapiens, UniProt P34913)
T1 sequence (P34913 1-555): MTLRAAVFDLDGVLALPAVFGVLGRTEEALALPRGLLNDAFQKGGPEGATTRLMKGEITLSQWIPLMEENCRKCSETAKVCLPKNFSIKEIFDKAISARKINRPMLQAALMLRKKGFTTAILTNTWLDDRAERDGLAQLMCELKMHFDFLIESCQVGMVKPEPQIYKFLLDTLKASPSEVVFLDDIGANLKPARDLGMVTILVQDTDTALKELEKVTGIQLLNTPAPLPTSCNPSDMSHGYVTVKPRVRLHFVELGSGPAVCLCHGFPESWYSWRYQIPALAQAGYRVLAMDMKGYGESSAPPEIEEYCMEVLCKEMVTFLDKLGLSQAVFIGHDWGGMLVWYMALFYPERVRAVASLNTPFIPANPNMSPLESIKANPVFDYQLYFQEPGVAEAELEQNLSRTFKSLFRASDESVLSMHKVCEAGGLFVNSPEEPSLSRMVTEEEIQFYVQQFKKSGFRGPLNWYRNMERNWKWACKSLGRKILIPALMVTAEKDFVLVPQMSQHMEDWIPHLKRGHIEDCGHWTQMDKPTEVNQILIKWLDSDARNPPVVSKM
Assay type: biochemical
Parameters: purchased Cayman Chemicals #10011671
Conditions: 100 nM
Description: FIGURE 3 Effects of NFA on sEH activity. […] Data are the mean ± SEM of n = 3–7. […] The cells were lysed, and hydrolase activity was measured by Epoxy Fluor 7 lysis. […] Statistical significance was calculated by one-way ANOVA with Bonferroni post-test and multiple comparisons against the DMSO control.

For `CCCCCCCC/C=C\CCCCCCCC(=O)O` [OA, oleic acid, reference compound], the “inhibition of recombinant sEH” value was “strong suppressive effect”.
